Article PMC13252604, “First Generation Proteolysis Targeting Chimeras (PROTACs) for the Treatment of Progeria” (Advanced Science, 2026)

Experiment: In vivo pharmacokinetic analysis
Conditions: mouse, i.p. 25 mg/kg
Description: FIGURE 8 (A) In vivo pharmacokinetic (PK) analysis of compound 2 (mean±sem, n = 2 per time point). (B) Body weight throughout the 7‐week treatment. Mice of the indicated genotypes (mean±sem, n = 2) were treated with compound 2 or vehicle, starting at 6 weeks of age. (C) Progerin and H3K9Me3 levels in lung and liver, respectively, of mice treated for 7 weeks. Representative cropped immunoblots are shown. MW, molecular weight (in kDa) markers. […] TEXT PRINTED IN THE PICTURE: (A) no label printed: VD (L·Kg^-1): 11± 5 (Dose (D) (mg·Kg^-1): 25); Ke (h^-1): 0.9± 0.1 (Dose (D) (mg·Kg^-1): 25); t1/2 (h): […] (Dose (D) (mg·Kg^-1): 25); AUC (mg·h·L^-1): 3±1 (Dose (D) (mg·Kg^-1): 25); CL (L·Kg^-1·h^-1): 10±5 (Dose (D) (mg·Kg^-1): 25) DOUBTS OF THE COPYIST ABOUT THIS PICTURE: Panel A: the picture prints no substance label beside the pharmacokinetic table, so the label is left empty. "Cpd 2" is printed only in panel B. […]
All scientific procedures with animals were conformed to EU Directive 2010/63 EU and Recommendation 2007/526/EC, enforced in Spanish law under Real Decreto 53/2013.
Animal protocols were approved by the Committee of Animal Experimentation of Universidad Complutense de Madrid and the Animal Protection Area of the Comunidad Autónoma de Madrid (PROEX 114.4/24). Animal studies were carried out in LmnaG609G/G609G knock-in mice ubiquitously expressing progerin[19] and control Lmna+/+ littermates, obtained by breeding LmnaG609G/+ mice kindly donated by Prof. V. Andrés (CNIC, Spain). Mice were maintained in the animal facility of the Universidad Complutense de Madrid under specific pathogen free conditions.
For pharmacokinetic studies, compound 2 was administered intraperitoneally and blood was collected at the selected time points post-dose (n=2-3 per time point) by cardiac puncture. Blood was allowed to clot at room temperature for 30 min and centrifuged at 4 °C for 10 min at 10000g. The supernatant was transferred to a clean polypropylene tube and stored at -80 °C until analysis. For analysis, a volume of cold acetonitrile was added to the serum. The sample was incubated in an ice bath for 10 min and centrifuged at 4 °C for 10 min at 18000g. The resulting organic layer was filtered through a polytetrafluoroethylene filter (0.2 µm, 13 mm diameter, Agilent Technologies) and 30 µL of the sample analyzed by liquid chromatography coupled to mass spectrometry multiple reaction monitoring at the UCM’s Mass Spectrometry CAI. Separation was performed using a Phenomenex Gemini 5 µm C18 110Å 150x2 mm column (run time 9 min; flow 0.7 mL/min; gradient: 0 min 5% B; 4-7 min 100% B; 7.5 min 5% B; Phase A: water with formic acid 0.1%; Phase B: acetonitrile). […]
UHPLC with an oven temperature of 31.5 °C. The mass spectrometer ion optics were set in the multiple reaction monitoring mode and the transition selected for quantification […]
For in vivo treatment, compound 2 was administrated at a concentration of 25 mg/kg diluted in sterile corn oil (Sigma-Aldrich) intraperitoneally three times per week starting at the age of 6 weeks. The same quantity of corn oil was injected to control […]
After 7 weeks of treatment, mice were euthanized by CO2 inhalation. […] For immunoblot analysis, a portion of the corresponding tissue was homogenized, and the protein concentration was determined. Samples containing equivalent amounts of total protein were then subjected to polyacrylamide gel electrophoresis and analyzed as […]

With `CC1(C)Oc2cc3oc(=O)ccc3cc2C[C@@H]1OC(=O)CCCCCNc1cccc2c1C(=O)N(C1CCC(=O)NC1=O)C2=O` (some centres unmarked) [compound 2] the concentration at 1 h (ip, serum, 1 h, read-out: levels of the compound 1 h after administration) was ~1500 ng/mL, the signs of toxicity was “no evident signs of toxicity” and the half-life (serum, ip, 25 mg/kg, read-out: t1/2 (half‐life) (converted)) was ~2 h. The AUC (serum, ip) was 3000 ± 1000 ng·h/mL and the k el (serum, ip, read-out: Ke (converted)) was 0.00025 s⁻¹.
